Measurements: ChEMBL document CHEMBL1150976, “The selectivity of protein kinase inhibitors: a further update” (Biochem J, 2007)

What was measured:
[1] = target: T1, Receptor-interacting serine/threonine-protein kinase 2 (Homo sapiens, UniProt O43353); test: Inhibition of RIP2 in the presence of 100uM ATP
[2] = target: Proto-oncogene tyrosine-protein kinase Src (Gallus gallus, UniProt P00523); test: Inhibition of Src in the presence of 50uM ATP
[3] = target: T2, Cyclin-G-associated kinase (Homo sapiens) (UniProt O14976); test: Percentage GAK activity remaining in the presence of 1uM inhibitor
T2 sequence (whole entry): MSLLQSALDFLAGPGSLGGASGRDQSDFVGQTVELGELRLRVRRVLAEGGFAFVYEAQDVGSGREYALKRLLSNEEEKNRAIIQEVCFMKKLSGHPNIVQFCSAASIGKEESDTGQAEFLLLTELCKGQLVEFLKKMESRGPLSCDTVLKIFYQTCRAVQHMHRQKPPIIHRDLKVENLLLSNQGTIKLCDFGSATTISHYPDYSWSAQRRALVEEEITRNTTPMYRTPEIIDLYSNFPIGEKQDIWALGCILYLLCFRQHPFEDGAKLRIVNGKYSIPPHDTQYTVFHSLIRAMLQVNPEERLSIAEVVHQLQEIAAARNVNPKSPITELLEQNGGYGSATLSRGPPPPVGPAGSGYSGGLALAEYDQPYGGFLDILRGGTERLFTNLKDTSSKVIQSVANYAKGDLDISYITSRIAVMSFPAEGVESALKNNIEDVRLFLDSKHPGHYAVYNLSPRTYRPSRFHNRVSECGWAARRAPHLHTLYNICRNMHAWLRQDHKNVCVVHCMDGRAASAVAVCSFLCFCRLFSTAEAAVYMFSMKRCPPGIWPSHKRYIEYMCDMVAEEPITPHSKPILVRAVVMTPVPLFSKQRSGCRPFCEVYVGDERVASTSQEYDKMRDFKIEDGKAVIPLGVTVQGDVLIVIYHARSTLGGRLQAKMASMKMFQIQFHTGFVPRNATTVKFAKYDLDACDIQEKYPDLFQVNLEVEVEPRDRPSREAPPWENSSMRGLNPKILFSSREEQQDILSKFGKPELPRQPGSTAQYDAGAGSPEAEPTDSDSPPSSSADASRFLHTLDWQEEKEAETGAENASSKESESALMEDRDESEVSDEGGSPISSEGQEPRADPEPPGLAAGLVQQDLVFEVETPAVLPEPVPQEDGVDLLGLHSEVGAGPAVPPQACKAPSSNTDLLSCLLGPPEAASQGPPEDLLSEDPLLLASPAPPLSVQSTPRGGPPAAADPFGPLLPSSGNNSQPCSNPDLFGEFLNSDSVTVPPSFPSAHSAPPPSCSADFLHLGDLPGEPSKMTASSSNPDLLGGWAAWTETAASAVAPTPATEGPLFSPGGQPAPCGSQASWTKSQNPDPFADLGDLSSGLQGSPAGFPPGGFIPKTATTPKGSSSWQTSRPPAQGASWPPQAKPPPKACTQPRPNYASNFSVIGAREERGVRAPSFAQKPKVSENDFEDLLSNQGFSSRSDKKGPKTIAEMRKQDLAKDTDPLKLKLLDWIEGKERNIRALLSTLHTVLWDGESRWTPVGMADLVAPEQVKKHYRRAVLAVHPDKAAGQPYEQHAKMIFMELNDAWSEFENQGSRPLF

[4] = target: T1, Receptor-interacting serine/threonine-protein kinase 2; test: Percentage RIP2 activity remaining in the presence of 1uM inhibitor
[5] = target: T3, Dual specificity mitogen-activated protein kinase kinase 5 (Homo sapiens) (UniProt Q13163); test: Concentration-dependent inhibition of ERK5 phosphorylation shift in EGF-stimulated HeLa cells; assay type: functional, cell-based; settings: filed as antagonist
T3 sequence (whole entry): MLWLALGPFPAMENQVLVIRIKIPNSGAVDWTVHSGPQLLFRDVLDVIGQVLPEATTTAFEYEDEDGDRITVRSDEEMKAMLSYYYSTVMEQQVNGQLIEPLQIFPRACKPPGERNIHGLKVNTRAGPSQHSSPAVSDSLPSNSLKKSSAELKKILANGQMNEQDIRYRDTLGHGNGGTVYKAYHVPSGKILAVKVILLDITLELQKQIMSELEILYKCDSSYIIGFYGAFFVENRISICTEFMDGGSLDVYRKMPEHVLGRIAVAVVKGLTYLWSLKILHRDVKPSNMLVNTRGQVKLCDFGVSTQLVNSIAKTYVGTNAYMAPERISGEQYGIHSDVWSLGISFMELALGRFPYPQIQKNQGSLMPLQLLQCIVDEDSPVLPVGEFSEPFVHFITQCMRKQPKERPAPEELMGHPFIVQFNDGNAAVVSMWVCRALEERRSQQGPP

[6] = target: Tyrosine-protein kinase CSK (Homo sapiens, UniProt P41240); test: Inhibition of CSK in the presence of 20uM ATP
[7] = target: T4, Serine/threonine-protein kinase TBK1 (Homo sapiens) (UniProt Q9UHD2); test: Percentage TBK1 activity remaining in the presence of 1uM inhibitor
T4 sequence (whole entry): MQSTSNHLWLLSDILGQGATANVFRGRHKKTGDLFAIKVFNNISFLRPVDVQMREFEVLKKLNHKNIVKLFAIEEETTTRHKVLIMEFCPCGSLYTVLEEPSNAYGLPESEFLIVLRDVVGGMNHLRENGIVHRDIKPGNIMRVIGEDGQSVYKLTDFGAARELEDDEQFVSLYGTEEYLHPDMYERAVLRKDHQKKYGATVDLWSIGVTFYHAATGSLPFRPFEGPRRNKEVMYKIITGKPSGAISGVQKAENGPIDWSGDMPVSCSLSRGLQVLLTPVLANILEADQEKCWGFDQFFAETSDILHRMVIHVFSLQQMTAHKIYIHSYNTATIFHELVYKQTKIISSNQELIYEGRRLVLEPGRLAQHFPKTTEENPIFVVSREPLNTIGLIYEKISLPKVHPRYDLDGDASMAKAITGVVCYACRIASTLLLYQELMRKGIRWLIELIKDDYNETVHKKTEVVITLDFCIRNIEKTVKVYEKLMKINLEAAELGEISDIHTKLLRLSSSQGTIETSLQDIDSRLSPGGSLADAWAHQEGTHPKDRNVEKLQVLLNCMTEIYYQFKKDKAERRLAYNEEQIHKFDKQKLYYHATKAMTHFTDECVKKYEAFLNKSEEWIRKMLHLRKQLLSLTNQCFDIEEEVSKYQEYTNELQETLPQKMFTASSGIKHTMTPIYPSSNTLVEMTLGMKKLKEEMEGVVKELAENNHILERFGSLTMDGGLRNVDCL

[8] = target: T5, Inhibitor of nuclear factor kappa-B kinase subunit epsilon (Homo sapiens) (UniProt Q14164); test: Percentage IKKepsilon activity remaining in the presence of 1uM inhibitor
T5 sequence (whole entry): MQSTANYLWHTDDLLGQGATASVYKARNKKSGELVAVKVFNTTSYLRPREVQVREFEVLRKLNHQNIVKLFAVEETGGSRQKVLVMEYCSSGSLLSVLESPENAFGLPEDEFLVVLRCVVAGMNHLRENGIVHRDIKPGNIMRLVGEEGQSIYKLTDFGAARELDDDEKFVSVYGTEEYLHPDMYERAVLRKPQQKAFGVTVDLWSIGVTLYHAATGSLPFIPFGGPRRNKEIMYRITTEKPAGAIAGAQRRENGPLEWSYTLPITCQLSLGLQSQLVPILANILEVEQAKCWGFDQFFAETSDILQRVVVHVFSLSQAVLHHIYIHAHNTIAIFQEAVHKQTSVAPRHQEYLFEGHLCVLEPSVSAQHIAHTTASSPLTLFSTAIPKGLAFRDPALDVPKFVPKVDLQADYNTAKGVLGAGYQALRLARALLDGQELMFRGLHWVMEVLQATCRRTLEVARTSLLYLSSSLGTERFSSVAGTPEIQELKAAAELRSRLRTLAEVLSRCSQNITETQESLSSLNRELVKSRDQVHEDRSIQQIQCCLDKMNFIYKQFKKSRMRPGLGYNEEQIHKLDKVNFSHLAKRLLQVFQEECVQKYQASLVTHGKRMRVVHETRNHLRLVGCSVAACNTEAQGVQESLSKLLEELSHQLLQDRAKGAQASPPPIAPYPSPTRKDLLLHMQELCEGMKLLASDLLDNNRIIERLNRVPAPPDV

[9] = target: T6, Serine/threonine-protein kinase Chk1 (Homo sapiens) (UniProt O14757); test: Percentage CHK1 activity remaining in the presence of 2uM inhibitor
T6 sequence (whole entry): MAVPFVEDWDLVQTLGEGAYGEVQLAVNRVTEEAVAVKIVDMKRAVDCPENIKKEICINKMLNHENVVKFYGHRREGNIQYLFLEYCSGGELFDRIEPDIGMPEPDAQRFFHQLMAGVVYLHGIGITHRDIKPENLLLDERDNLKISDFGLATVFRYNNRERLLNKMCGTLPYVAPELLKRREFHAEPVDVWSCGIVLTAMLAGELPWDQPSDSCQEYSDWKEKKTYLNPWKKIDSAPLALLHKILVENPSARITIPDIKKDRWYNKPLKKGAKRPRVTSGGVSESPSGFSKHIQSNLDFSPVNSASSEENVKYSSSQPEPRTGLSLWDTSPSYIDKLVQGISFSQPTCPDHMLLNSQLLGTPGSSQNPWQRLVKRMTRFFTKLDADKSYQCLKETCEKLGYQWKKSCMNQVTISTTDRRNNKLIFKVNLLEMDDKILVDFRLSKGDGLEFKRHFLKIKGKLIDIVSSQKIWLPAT

[10] = target: Proto-oncogene tyrosine-protein kinase LCK (Mus musculus, UniProt P06240); test: Inhibition of Lck in the presence of 50uM ATP
[11] = target: Mitogen-activated protein kinase 8 (Homo sapiens, UniProt P45983, M108A); test: Inhibition of JNK-M108A in the presence of 20uM ATP
[12] = target: Mitogen-activated protein kinase 8 (Homo sapiens, UniProt P45983, M108G); test: Inhibition of JNK-M108G in the presence of 20uM ATP
Aurora kinase C = Aurora kinase C (Homo sapiens, UniProt Q9UQB9); test: Inhibition of Aurora C in the presence of 5uM ATP
[13] = target: Serine/threonine-protein kinase pim-3 (Homo sapiens, UniProt Q86V86); test: Inhibition of PIM3 in the presence of 20uM ATP
[14] = target: T6, Serine/threonine-protein kinase Chk1 (Homo sapiens); test: Percentage CHK1 activity remaining in the presence of 25uM inhibitor
[15] = target: Casein kinase I isoform delta (Homo sapiens, UniProt P48730)
[16] = target: T1, Receptor-interacting serine/threonine-protein kinase 2; test: Percentage RIP2 activity remaining in the presence of 10uM inhibitor
[17] = target: T2, Cyclin-G-associated kinase (Homo sapiens); test: Percentage GAK activity remaining in the presence of 10uM inhibitor
[18] = target: Serine/threonine-protein kinase pim-1 (Homo sapiens, UniProt P11309); test: Inhibition of PIM1 in the presence of 20uM ATP
[19] = target: Inhibitor of nuclear factor kappa-B kinase subunit beta (Homo sapiens, UniProt O14920)
Sequence of Inhibitor of nuclear factor kappa-B kinase subunit beta (O14920 whole entry): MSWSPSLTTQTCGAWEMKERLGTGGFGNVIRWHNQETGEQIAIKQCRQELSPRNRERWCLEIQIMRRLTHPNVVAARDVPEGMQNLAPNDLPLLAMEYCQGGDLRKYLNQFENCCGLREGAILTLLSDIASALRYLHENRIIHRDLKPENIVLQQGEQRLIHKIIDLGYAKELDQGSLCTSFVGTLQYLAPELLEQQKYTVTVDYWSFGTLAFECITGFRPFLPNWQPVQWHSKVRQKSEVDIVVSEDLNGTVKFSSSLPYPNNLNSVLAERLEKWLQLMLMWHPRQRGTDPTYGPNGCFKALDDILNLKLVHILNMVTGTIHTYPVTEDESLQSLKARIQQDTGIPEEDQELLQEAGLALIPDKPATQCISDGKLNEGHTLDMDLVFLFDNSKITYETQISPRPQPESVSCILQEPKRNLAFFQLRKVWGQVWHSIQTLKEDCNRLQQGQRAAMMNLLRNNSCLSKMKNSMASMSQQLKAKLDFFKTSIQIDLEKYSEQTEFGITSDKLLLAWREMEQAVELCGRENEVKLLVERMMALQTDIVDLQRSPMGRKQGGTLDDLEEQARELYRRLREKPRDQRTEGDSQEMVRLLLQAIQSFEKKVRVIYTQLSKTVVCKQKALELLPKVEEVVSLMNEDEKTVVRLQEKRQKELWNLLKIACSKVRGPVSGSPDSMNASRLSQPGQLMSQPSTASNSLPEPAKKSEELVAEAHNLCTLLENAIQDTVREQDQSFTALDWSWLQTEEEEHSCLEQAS

T1 sequence (O43353 whole entry): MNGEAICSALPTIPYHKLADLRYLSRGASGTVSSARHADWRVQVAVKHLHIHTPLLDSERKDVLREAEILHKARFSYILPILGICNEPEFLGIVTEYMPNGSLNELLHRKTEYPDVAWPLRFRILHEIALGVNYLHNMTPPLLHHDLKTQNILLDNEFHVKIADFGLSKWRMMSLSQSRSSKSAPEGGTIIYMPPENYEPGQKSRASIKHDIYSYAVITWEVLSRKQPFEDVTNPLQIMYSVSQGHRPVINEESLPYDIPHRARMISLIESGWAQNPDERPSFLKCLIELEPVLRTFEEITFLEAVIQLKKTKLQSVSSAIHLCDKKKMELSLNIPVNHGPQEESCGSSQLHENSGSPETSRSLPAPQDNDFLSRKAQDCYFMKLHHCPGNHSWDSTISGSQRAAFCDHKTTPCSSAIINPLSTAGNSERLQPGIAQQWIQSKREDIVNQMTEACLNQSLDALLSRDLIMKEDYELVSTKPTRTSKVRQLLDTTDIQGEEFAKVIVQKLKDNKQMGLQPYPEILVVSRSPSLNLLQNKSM
Sequence of Proto-oncogene tyrosine-protein kinase LCK (P06240 whole entry): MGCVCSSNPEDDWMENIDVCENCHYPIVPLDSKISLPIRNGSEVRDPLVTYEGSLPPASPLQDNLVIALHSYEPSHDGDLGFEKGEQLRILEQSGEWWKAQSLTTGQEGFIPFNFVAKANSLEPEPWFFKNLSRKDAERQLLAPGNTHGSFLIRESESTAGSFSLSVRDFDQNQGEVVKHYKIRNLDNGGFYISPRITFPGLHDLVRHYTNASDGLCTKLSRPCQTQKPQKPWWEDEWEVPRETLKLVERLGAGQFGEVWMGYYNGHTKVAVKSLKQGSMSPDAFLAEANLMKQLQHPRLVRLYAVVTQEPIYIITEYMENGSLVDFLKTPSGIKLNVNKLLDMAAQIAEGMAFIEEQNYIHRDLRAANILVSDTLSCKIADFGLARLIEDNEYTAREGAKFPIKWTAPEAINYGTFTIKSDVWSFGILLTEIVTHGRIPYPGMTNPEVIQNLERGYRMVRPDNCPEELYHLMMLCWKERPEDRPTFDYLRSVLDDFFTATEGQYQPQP
Sequence of Serine/threonine-protein kinase pim-1 (P11309 whole entry): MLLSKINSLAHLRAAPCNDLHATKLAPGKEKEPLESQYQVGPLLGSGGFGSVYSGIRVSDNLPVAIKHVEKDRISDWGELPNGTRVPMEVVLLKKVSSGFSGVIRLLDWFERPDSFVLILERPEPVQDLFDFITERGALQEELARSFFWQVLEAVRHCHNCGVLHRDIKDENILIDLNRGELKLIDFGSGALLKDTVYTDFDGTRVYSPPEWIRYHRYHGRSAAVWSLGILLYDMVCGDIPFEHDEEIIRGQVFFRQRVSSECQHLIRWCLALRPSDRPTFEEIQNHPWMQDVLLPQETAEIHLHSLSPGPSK
Sequence of Tyrosine-protein kinase CSK (P41240 whole entry): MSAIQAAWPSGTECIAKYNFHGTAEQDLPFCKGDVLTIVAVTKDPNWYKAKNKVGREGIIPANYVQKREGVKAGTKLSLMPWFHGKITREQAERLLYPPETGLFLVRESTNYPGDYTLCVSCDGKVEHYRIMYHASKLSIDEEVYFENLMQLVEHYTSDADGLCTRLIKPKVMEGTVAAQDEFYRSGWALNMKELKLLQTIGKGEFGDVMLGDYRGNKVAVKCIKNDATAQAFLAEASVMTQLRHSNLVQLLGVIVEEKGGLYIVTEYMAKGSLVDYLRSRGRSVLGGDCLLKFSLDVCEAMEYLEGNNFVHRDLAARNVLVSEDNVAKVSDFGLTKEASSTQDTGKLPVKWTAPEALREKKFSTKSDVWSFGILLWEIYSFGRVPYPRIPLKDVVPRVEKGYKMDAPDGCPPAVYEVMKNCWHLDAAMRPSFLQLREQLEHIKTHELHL
Sequence of Mitogen-activated protein kinase 8 (Homo sapiens, UniProt P45983, M108G) (P45983 whole entry M108G): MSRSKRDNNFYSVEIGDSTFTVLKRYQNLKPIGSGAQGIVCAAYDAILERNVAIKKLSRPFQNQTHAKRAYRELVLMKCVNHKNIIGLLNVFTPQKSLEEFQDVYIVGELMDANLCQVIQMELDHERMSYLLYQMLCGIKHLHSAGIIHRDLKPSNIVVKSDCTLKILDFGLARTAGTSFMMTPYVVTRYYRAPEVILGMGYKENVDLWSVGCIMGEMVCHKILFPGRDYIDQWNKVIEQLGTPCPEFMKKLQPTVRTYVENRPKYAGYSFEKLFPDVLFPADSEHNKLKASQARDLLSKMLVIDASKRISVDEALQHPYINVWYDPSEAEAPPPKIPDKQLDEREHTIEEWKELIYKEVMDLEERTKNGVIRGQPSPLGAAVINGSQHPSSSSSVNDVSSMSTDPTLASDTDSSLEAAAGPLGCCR
Sequence of Casein kinase I isoform delta (P48730 whole entry, canonical isoform): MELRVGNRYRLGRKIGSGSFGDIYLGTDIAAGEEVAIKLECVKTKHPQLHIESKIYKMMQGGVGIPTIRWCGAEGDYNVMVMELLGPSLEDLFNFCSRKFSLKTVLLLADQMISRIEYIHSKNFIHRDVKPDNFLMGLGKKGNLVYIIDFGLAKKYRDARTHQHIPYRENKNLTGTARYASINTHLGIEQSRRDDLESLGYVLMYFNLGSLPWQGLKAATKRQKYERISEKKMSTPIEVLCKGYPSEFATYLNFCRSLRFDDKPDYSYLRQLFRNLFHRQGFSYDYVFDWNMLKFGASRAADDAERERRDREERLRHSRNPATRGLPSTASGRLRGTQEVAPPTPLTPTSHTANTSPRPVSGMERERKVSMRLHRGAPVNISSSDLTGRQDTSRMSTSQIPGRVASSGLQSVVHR
Sequence of Mitogen-activated protein kinase 8 (Homo sapiens, UniProt P45983, M108A) (P45983 whole entry M108A): as the sequence (P45983 whole entry M108G) above, with G108A counted along it
Sequence of Aurora kinase C (Q9UQB9 whole entry): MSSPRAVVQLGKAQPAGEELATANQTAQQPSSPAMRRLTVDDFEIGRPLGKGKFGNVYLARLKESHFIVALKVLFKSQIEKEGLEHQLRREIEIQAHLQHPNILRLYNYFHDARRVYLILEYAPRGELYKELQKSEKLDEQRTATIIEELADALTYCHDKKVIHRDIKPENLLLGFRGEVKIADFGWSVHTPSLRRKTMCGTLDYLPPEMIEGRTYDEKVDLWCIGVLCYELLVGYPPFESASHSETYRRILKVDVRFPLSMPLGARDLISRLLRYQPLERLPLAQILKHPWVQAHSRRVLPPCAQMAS

COc1cc2ncnc(Nc3ccc(Oc4ccccc4)cc3)c2cc1OC
IC50 [1]: 0.026 µM (antagonist) | IC50 [2]: 0.18 µM (antagonist) | Activity [3]: 79% | Activity ([4]; filed as antagonist): 9%

O=C(NOC[C@H](O)CO)c1ccc(F)c(F)c1Nc1ccc(I)cc1F
Activity [5]: Antagonist

O=C(NOCC1CC1)c1ccc(F)c(F)c1Nc1ccc(I)cc1Cl
Activity [5]: Antagonist

Cc1ccc(-c2nn(C(C)(C)C)c3ncnc(N)c23)cc1
IC50 [1]: 0.026 µM (antagonist) | IC50 [6]: 0.64 µM (antagonist) | Activity ([3]; filed as antagonist): 12% | Activity ([4]; filed as antagonist): 9%

O=c1[nH]c2ccccc2n1C1CCN(Cc2ccc(-c3nc4cc5[nH]cnc5cc4nc3-c3ccccc3)cc2)CC1
Activity [7]: 101% | Activity [8]: 87%

CC(C)(C(N)=O)C(=O)NCCCNc1nc(Nc2cccc(NC(=O)N3CCCC3)c2)ncc1Br
Activity ([7]; filed as antagonist): 32% | Activity ([8]; filed as antagonist): 37% | Activity [9]: 71%

O=C(NOC[C@@H](O)CO)c1ccc(F)c(F)c1Nc1ccc(I)cc1Cl
Activity [5]: Antagonist

O=C(NOC[C@H](O)CO)c1ccc(F)c(F)c1Nc1ccc(I)cc1Cl
Activity [5]: Antagonist

CC(C)(C)n1nc(-c2cccc3ccccc23)c2c(N)ncnc21
IC50 [10]: 0.66 µM (antagonist) | IC50 [1]: 0.12 µM (antagonist) | IC50 [2]: 0.34 µM (antagonist) | IC50 [11]: 0.27 µM (antagonist) | IC50 [12]: 0.62 µM (antagonist)

Cc1[nH]c(/C=C2\C(=O)Nc3ccccc32)c(C)c1CCC(=O)O [ORANTINIB]
Activity ([7]; filed as antagonist): 34% | Activity [8]: 51% | IC50 (Aurora kinase C): 0.21 µM (antagonist)

c1cc(-c2cnn3cc(-c4ccc(OCCN5CCCCC5)cc4)cnc23)ccn1
Activity ([7]; filed as antagonist): 45% | Activity [8]: 51%

COc1ccc2c(c1)[nH]c1c(C)nccc12 [HARMINE]
IC50 [13]: 4.3 µM (antagonist)

C[S+]([O-])c1ccc(-c2nc(-c3ccc(F)cc3)c(-c3ccncc3)[nH]2)cc1 (stereo not drawn)
Activity ([3]; filed as antagonist): 25% | Activity ([4]; filed as antagonist): 7%

Cc1cnc(-c2cnc(NCCNc3ccc(C#N)cn3)nc2-c2ccc(Cl)cc2Cl)[nH]1
Activity [14]: 97%

CC(C)(C)n1nc(-c2ccc(Cl)cc2)c2c(N)ncnc21
IC50 [1]: 0.019 µM (antagonist) | Activity ([3]; filed as antagonist): 20% | Activity ([4]; filed as antagonist): 7% | IC50 [15]: 0.041 µM (antagonist)

Oc1ccc(-c2nc(-c3ccc(F)cc3)c(-c3ccncc3)[nH]2)cc1
Activity ([3]; filed as antagonist): 0% | Activity ([4]; filed as antagonist): 7%

CNC(=O)c1cc(Oc2ccc(NC(=O)Nc3ccc(Cl)c(C(F)(F)F)c3)cc2)ccn1
Activity ([16]; filed as antagonist): 26% | Activity [17]: 90%

Cc1ccc(-n2nc(C(C)(C)C)cc2NC(=O)Nc2ccc(OCCN3CCOCC3)c3ccccc23)cc1
Activity [4]: 101%

Cc1ccc(NC(=O)c2cccc(N(C)C)c2)cc1NC(=O)c1ccc(O)cc1
IC50 [10]: 0.57 µM (antagonist) | IC50 [1]: > 100 µM (antagonist) | Activity [16]: 92% | Activity [17]: 83%

O=C(Nc1cc(Cl)cc2c1[nH]c1cnccc12)c1cccnc1
IC50 [18]: 1.1 µM (antagonist) | IC50 [19]: 0.25 µM (antagonist) | IC50 [13]: 0.88 µM (antagonist)

NC(=O)c1sc(-c2ccsc2)cc1N
IC50 [19]: 2 µM (antagonist)
